US10189819B2, “Factor IXa inhibitors” (MERCK SHARP & DOHME CORP., priority 2014, dated 2019)

These compounds were tested against Factor IXa (Homo sapiens (Human), UniProt P00740) (assay: Determination of inhibitory activity against Factor IXa (cleavage of fluorescent peptide CH3SO2-D-CHG-Gly-Arg-AFC)). Settings: read-out: FIXa IC50.
Format: biochemical
Method: Determination of Inhibitory Activity Against Factor IXa
Formation of a clot to stem bleeding at a site of blood vessel injury involves the coordinated activity of a group of plasma proteins that initiate and propagate fibrin formation and subsequently protect fibrin from premature degradation. Factor IX is a key component of the plasma system that forms a fibrin clot at a site of vascular injury. The activity of Factor IXa is measured by monitoring the cleavage of the fluorescent peptide, CH3SO2-D-CHG-Gly-Arg-AFC.AcOH (“CHG” is cyclohexyl-glycine and “AFC” is trifluoro aminomethyl coumarin). Factor IXa cleaves the amide bond between Arg and AFC, thereby releasing the AFC fluorophore. The free AFC can be detected with a fluorescence detector at an excitation wavelength of 405 nm and emission wavelength of 510 nm.

Factor IXa, sequence (P00740 227-461): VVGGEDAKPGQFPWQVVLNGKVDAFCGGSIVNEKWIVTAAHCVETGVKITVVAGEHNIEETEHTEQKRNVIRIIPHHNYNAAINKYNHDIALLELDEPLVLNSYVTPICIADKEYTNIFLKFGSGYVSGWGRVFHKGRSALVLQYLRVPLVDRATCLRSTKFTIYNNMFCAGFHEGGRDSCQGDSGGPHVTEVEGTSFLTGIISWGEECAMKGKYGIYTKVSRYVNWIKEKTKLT
Factor IXa, sequence (P00740 47-191 partner): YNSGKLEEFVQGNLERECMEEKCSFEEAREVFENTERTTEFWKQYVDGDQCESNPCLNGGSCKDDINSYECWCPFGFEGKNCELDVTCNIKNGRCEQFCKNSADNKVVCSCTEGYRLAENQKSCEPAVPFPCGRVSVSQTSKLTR

Going from `Cc1cc2nc([C@@H](CNC(=O)c3ccc(-n4cnnc4)cc3Cl)c3ccccc3)[nH]c2cc1C` [Example 37, (R)-2-Chloro-N-(2-(5,6-dimethyl-1H-benzo[d]imidazol-2-yl)-2-phenylethyl)-4-(4H-1,2,4-triazol-4-yl)benzamide] to `Cc1cc2cc([C@@H](CNC(=O)c3c(Cl)cc(-n4cnnc4)cc3Cl)c3ccccc3)[nH]c2cc1C` [Example 74, (R)-2,6-dichloro-N-(2-(5,6-dimethyl-1H-indol-2-yl)-2-phenylethyl)-4-(4H-1,2,4-triazol-4-yl)benzamide], the IC50 rises from 0.0157 µM to 0.0291 µM (1.9-fold). The first is the more potent here.

Compared with `Cc1cc2nc([C@@H](CNC(=O)c3c(Cl)cc(-n4cnnc4)cc3Cl)c3cncc(F)c3)[nH]c2cc1C` [Example 38, (R)-2,6-Dichloro-N-(2-(5,6-dimethyl-1H-benzo[d]imidazol-2-yl)-2-(5-fluoropyridin-3-yl)ethyl)-4-(4H-1,2,4-triazol-4-yl)benzamide], `Cc1cc2nc([C@@](C)(CNC(=O)c3c(Cl)cc(-n4cnnc4)cc3Cl)c3ccc(F)cc3)[nH]c2cc1C` [Example 70] is 2.6-fold lower in IC50: 0.0148 µM for the first, 0.0056 µM for the second.

First: Cc1ncn(-c2cc(Cl)c(C(=O)NC[C@@H](c3ccc(C(=O)O)cc3)c3nc4c(C)cc(Cl)cc4[nH]3)c(Cl)c2)n1 [Example 41, (R)-4-(1-(6-Chloro-4-methyl-1H-benzo[d]imidazol-2-yl)-2-(2,6-dichloro-4-(3-methyl-1H-1,2,4-triazol-1-yl)benzamido)ethyl)benzoic acid]
Second: CCOC(=O)c1ccc([C@H](CNC(=O)c2c(Cl)cc(-n3cnc(C)n3)cc2Cl)c2nc3c(C)cc(Cl)cc3[nH]2)cc1 [Example 42, (R)-Ethyl 4-(1-(6-chloro-4-methyl-1H-benzo[d]imidazol-2-yl)-2-(2,6-dichloro-4-(3-methyl-1H-1,2,4-triazol-1-yl)benzamido)ethyl)benzoate]
The IC50 of the first is 2.1-fold lower: 0.0186 µM for the first, 0.0391 µM for the second.

Compared with `O=C(NC[C@@H](c1ccc(F)cc1)c1nc2ccc(Cl)cc2o1)c1c(Cl)cc(-n2cnnc2)cc1Cl` [Example 43, (R)-2,6-Dichloro-N-(2-(6-chlorobenzo[d]oxazol-2-yl)-2-(4-fluorophenyl)ethyl)-4-(4H-1,2,4-triazol-4-yl)benzamide], `Cc1ncn(-c2cc(Cl)c(C(=O)NC[C@@H](c3cccc(F)c3)c3ccc4[nH]c(C)nc4c3)c(Cl)c2)n1` [Example 75, (R)-2,6-dichloro-N-(2-(3-fluorophenyl)-2-(2-methyl-1H-benzo[d]imidazol-5-yl)ethyl)-4-(3-methyl-1H-1,2,4-triazol-1-yl)benzamide] is 11-fold lower in IC50: 0.0962 µM for the first, 0.0091 µM for the second.

Same assay, conditions: read-out: hFIXa IC50

Compared with `Cc1cc2nc(C(CNC(=O)c3c(Cl)cc(-c4cncnc4)cc3Cl)c3ccccc3)[nH]c2cc1C` (stereo not drawn) [Example 17], `Cc1cc2nc(C(CNC(=O)c3c(Cl)cc(-c4cncc(CO)c4)cc3Cl)c3ccccc3)[nH]c2cc1C` (stereo not drawn) [Example 34] is 1.8-fold lower in IC50: 0.0181 µM for the first, 0.0103 µM for the second. The second is the more potent here.

Compared with `Cc1cc2nc(C(CNC(=O)c3c(Cl)cc(-c4cnn(CS(C)(=O)=O)c4)cc3Cl)c3ccccc3)[nH]c2cc1C` (stereo not drawn) [Example 18], `Cc1cc2nc(C(CNC(=O)c3c(Cl)cc(-c4cnn(CCO)c4)cc3Cl)c3ccccc3)[nH]c2cc1C` (stereo not drawn) [Example 31] is 6.2-fold lower in IC50: 0.403 µM for the first, 0.0653 µM for the second.

`CCOC(=O)c1cc(-c2cc(Cl)c(C(=O)NCC(c3ccccc3)c3nc4cc(C)c(C)cc4[nH]3)c(Cl)c2)ccn1` (stereo not drawn) [Example 19] and `CCOC(=O)c1cc(-c2ccc(C(=O)NCC(c3ccccc3)c3nc4cc(C)c(C)cc4[nH]3)c(Cl)c2)ccn1` (stereo not drawn) [Example 30] are within 1.5-fold of each other in IC50: 0.343 µM for the first, 0.247 µM for the second.

First: Cc1cc2nc(C(CNC(=O)c3c(Cl)cc(-c4cnc5c(c4)CCC(=O)N5)cc3Cl)c3ccccc3)[nH]c2cc1C (stereo not drawn) [Example 20]
Second: Cc1cc2nc(C(CNC(=O)c3c(Cl)cc(-c4cnc5c(c4)CNC5=O)cc3Cl)c3ccccc3)[nH]c2cc1C (stereo not drawn) [Example 24]
The IC50 of the first is 2-fold higher: 0.276 µM for the first, 0.141 µM for the second. The second is the more potent here.

Going from `Cc1cc2nc(C(CNC(=O)c3c(Cl)cc(-c4cnc(OCCF)nc4)cc3Cl)c3ccccc3)[nH]c2cc1C` (stereo not drawn) [Example 21] to `Cc1cc2nc(C(CNC(=O)c3c(Cl)cc(-c4cnc(C5CC5)nc4)cc3Cl)c3ccccc3)[nH]c2cc1C` (stereo not drawn) [Example 29], the IC50 rises from 0.378 µM to 0.653 µM (1.7-fold). The first is the more potent here.

First: Cc1cc2nc(C(CNC(=O)c3c(Cl)cc(-c4cncc(C(C)(C)O)c4)cc3Cl)c3ccccc3)[nH]c2cc1C (stereo not drawn) [Example 22]
Second: Cc1cc2nc(C(CNC(=O)c3c(Cl)cc(-c4cn[nH]c4)cc3Cl)c3ccccc3)[nH]c2cc1C (stereo not drawn) [Example 32]
The IC50 of the first is 11-fold lower: 0.0447 µM for the first, 0.503 µM for the second.

First: COC(=O)c1ccc(-c2cc(Cl)c(C(=O)NCC(c3ccccc3)c3nc4cc(C)c(C)cc4[nH]3)c(Cl)c2)cn1 (stereo not drawn) [Example 23]
Second: Cc1cc2nc(C(CNC(=O)c3c(Cl)cc(-c4ccc(C(=O)O)nc4)cc3Cl)c3ccccc3)[nH]c2cc1C (stereo not drawn) [Example 26]
The IC50 of the first is 1.7-fold higher: 0.544 µM for the first, 0.312 µM for the second.

Going from `Cc1cc2nc(C(CNC(=O)c3c(Cl)cc(-c4cnc5ccccc5c4)cc3Cl)c3ccccc3)[nH]c2cc1C` (stereo not drawn) [Example 25] to `Cc1cc2nc(C(CNC(=O)c3c(Cl)cc(-c4ccc(CO)nc4)cc3Cl)c3ccccc3)[nH]c2cc1C` (stereo not drawn) [Example 35], the IC50 falls from 0.464 µM to 0.0427 µM (11-fold). The second is the more potent here.

Compared with `Cc1cc2nc(C(CNC(=O)c3c(Cl)cc(-c4ccc5nncn5c4)cc3Cl)c3ccccc3)[nH]c2cc1C` (stereo not drawn) [Example 27], `Cc1cc2nc(C(CNC(=O)c3c(Cl)cc(-c4ccn5ncnc5c4)cc3Cl)c3ccccc3)[nH]c2cc1C` (stereo not drawn) [Example 28] is 3.1-fold higher in IC50: 0.021 µM for the first, 0.0648 µM for the second. The first is the more potent here.

Compared with `Cc1cc2nc(C(CNC(=O)c3ccc(-c4ccnc(C(=O)O)c4)cc3Cl)c3ccccc3)[nH]c2cc1C` (stereo not drawn) [Example 33], `Cc1cc2nc(C(CNC(=O)c3c(Cl)cc(-c4ccnc(CO)c4)cc3Cl)c3ccccc3)[nH]c2cc1C` (stereo not drawn) [Example 36] is 10-fold lower in IC50: 0.538 µM for the first, 0.0525 µM for the second. The second is the more potent here.

Compared with `Cc1ccc2nc(C(CNC(=O)c3ccc(-n4cnnc4)cc3Cl)c3ccccc3)[nH]c2c1` (stereo not drawn) [Example 44], `Cc1cccc2[nH]c(C(CNC(=O)c3ccc(-n4cnnc4)cc3Cl)c3ccccc3)nc12` (stereo not drawn) [Example 45] is 12-fold higher in IC50: 0.0535 µM for the first, 0.622 µM for the second. The first is the more potent here.

Going from `Cc1ncn(-c2cc(Cl)c(C(=O)NC[C@@H](c3cccc(F)c3)c3nc4ccc(Cl)cc4[nH]3)c(Cl)c2)n1` [Example 46] to `COc1ccc2nc(C(CNC(=O)c3c(Cl)cc(-n4cnc(C)n4)cc3Cl)c3cccc(F)c3)[nH]c2c1` (stereo not drawn) [Example 49], the IC50 rises from 0.00978 µM to 0.0491 µM (5-fold). The first is the more potent here.

Going from `Cc1ncn(-c2cc(Cl)c(C(=O)NCC(c3cccc(F)c3)c3nc4c(C)cc(Cl)cc4[nH]3)c(Cl)c2)n1` (stereo not drawn) [Example 47] to `COc1cc2nc(C(CNC(=O)c3c(Cl)cc(-n4cnc(C)n4)cc3Cl)c3cccc(F)c3)[nH]c2cc1Cl` (stereo not drawn) [Example 48], the IC50 falls from 0.00618 µM to 0.00286 µM (2.2-fold).

`Cc1cc2nc(C(CNC(=O)c3ccc(-n4cnnc4)cc3Cl)c3cccc(F)c3)[nH]c2cc1C` (stereo not drawn) [Example 50] and `Cc1cc2nc(C(CNC(=O)c3ccc(-n4cnnc4)cc3Cl)c3ccc(F)cc3)[nH]c2cc1C` (stereo not drawn) [Example 52] are within 1.5-fold of each other in IC50: 0.00569 µM for the first, 0.00842 µM for the second.

`Cc1cc2nc(C(CNC(=O)c3ccc(-n4cnnc4)cc3Cl)c3ccccc3F)[nH]c2cc1C` (stereo not drawn) [Example 51] and `Cc1cc2nc(C(CNC(=O)c3ccc(-n4cnnc4)cc3Cl)c3cccnc3)[nH]c2cc1C` (stereo not drawn) [Example 56] are within 1.5-fold of each other in IC50: 0.0193 µM for the first, 0.0154 µM for the second.

`Cc1cc2nc(C(CNC(=O)c3c(Cl)cc(-n4cnnc4)cc3Cl)c3ccc(F)cc3)[nH]c2cc1C` (stereo not drawn) [Example 53] and `COc1cc2nc([C@@H](CNC(=O)c3c(Cl)cc(-n4cnc(C)n4)cc3Cl)c3ccc(C(N)=O)cc3)[nH]c2cc1Cl` [Example 58] are within 1.5-fold of each other in IC50: 0.00282 µM for the first, 0.00236 µM for the second.

Going from `Cc1ncn(-c2ccc(C(=O)NCC(c3ccc(C(F)(F)F)nc3)c3nc4cc(C)c(C)cc4[nH]3)c(Cl)c2)n1` (stereo not drawn) [Example 55] to `COc1cc2nc([C@@H](CNC(=O)c3c(Cl)cc(-n4cnc(C)n4)cc3Cl)c3ccc(C(=O)O)cc3)[nH]c2cc1Cl` [Example 60], the IC50 falls from 0.427 µM to 0.00479 µM (89-fold). The second is the more potent here.

Compared with `COc1cc2nc([C@@H](CNC(=O)c3c(Cl)cc(-n4cnc(C)n4)cc3Cl)c3cnc(N(C)C)nc3)[nH]c2cc1Cl` [Example 57], `COc1cc2nc([C@@H](CNC(=O)c3c(Cl)cc(-n4cnc(C)n4)cc3Cl)c3ccc(C(=O)N(C)C)cc3)[nH]c2cc1Cl` [Example 63] is 3.2-fold higher in IC50: 0.00876 µM for the first, 0.0277 µM for the second.

Going from `COc1cc2nc(C(CNC(=O)c3c(Cl)cc(-n4cnc(C)n4)cc3Cl)c3cccc(C(=O)O)c3)[nH]c2cc1Cl` (stereo not drawn) [Example 59] to `CNC(=O)c1cccc([C@H](CNC(=O)c2c(Cl)cc(-n3cnc(C)n3)cc2Cl)c2nc3cc(OC)c(Cl)cc3[nH]2)c1` [Example 61], the IC50 rises from 0.0015 µM to 0.00478 µM (3.2-fold). The first is the more potent here.

Going from `COc1cc2nc(C(CNC(=O)c3c(Cl)cc(-n4cnc(C)n4)cc3Cl)c3cccc(CC(=O)O)c3)[nH]c2cc1Cl` (stereo not drawn) [Example 62] to `COC(=O)Cc1cccc(C(CNC(=O)c2c(Cl)cc(-n3cnc(C)n3)cc2Cl)c2nc3cc(OC)c(Cl)cc3[nH]2)c1` (stereo not drawn) [Example 64], the IC50 rises from 0.00175 µM to 0.0061 µM (3.5-fold). The first is the more potent here.

First: CCOC(=O)c1ccc([C@H](CNC(=O)c2c(Cl)cc(-n3cnc(C)n3)cc2Cl)c2nc3cc(OC)c(Cl)cc3[nH]2)cc1 [Example 65]
Second: CCOC(=O)c1cccc([C@H](CNC(=O)c2c(Cl)cc(-n3cnc(C)n3)cc2Cl)c2nc3cc(OC)c(Cl)cc3[nH]2)c1 [Example 66]
The IC50 of the first is 3-fold lower: 0.0056 µM for the first, 0.0168 µM for the second.

Going from `COc1cc2nc([C@@H](CNC(=O)c3c(Cl)cc(-n4cnc(C)n4)cc3Cl)c3cccc(C(=O)NC4CC4)c3)[nH]c2cc1Cl` [Example 67] to `COc1cc2nc(C(CNC(=O)c3c(Cl)cc(-n4cnc(C)n4)cc3Cl)n3cc(C(C)(C)O)nn3)[nH]c2cc1Cl` (stereo not drawn) [Example 73], the IC50 rises from 0.0029 µM to 0.0344 µM (12-fold). The first is the more potent here.

`Cc1cc2nc(C(CNC(=O)c3ccc(-n4cnnc4)cc3Cl)c3cccc(F)c3)oc2cc1C` (stereo not drawn) [Example 68] and `COc1cc2nc([C@@H](CNC(=O)c3c(Cl)cc(-n4cnc(C)n4)cc3Cl)n3cc(CN(C)C)nn3)[nH]c2cc1Cl` [Example 72] are within 1.5-fold of each other in IC50: 0.0719 µM for the first, 0.0672 µM for the second.
